Test results published in patent US10206394B2, “Herbicidal compounds” (Syngenta Participations AG, priority 2014, dated 2019).
Where two headings read alike, the source gives them in different places.

Experiments:
Assay in all cases: Glasshouse assay for herbicidal activity (pre- and post-emergence), percentage phytotoxicity
Assay type in all cases: in vivo
[1] = system: Echinochloa crus-galli (ECHCG); settings: Echinochloa crus-galli
Method: (§1) Test—Glasshouse Assay for Herbicidal Activity
(§2) Seeds of a variety of monocotyledonous and dicotyledonous test plants are sown in standard soil in pots. The plants are cultivated for one day (for pre-emergence (PRE)) or for about 12 days (for post-emergence (POST)) under controlled conditions in a glasshouse (warm climate species at 24/18° C., cool climate species at 20/16° C., both at day/night; 16 hours light; 65% humidity).
(§3) The test plants are then grown on, in a glasshouse (greenhouse) under controlled conditions (warm climate species at 24/18° C., cool climate species at 20/16° C., both at day/night; 16 hours light; 65% humidity) and are watered twice daily. 15 days after application of the test herbicide (15 DAA) (for post-emergence), and 20 days after application of the test herbicide (20 DAA) (for pre-emergence), the test plants are evaluated visually, and an assessed percentage phytotoxicity score is given for each herbicidal application on each plant species (with 100%=total damage to plant; 0%=no damage to plant).
(§4) The plant species tested are as follows: Alopecurus myosuroides (ALOMY), Avena fatua (AVEFA), Lolium perenne (LOLPE), Echinochloa crus-galli (ECHCG).

Avena fatua (AVEFA) = settings: Avena fatua
Method: as §1, §2, §3, §4

Lolium perenne (LOLPE) = settings: Lolium perenne
Method: as §1, §2, §3, §4

[2] = system: Alopecurus myosuroides (ALOMY); settings: Alopecurus myosuroides
Method: as §1, §2, §3, §4

[3] = post-emergence, 360 h, POST-emergence, rate 250 g/ha, visual score 15 DAA (100%=total damage, 0%=no damage), read-out: Post-emergence herbicidal activity (percentage phytotoxicity) ECHCG POST
[4] = pre-emergence, 480 h, PRE-emergence, rate 250 g/ha, visual score 20 DAA (100%=total damage, 0%=no damage), read-out: Pre-emergence herbicidal activity (percentage phytotoxicity) ECHCG PRE
[5] = post-emergence, 360 h, POST-emergence, rate 250 g/ha, visual score 15 DAA (100%=total damage, 0%=no damage), read-out: Post-emergence herbicidal activity (percentage phytotoxicity) AVEFA POST
[6] = pre-emergence, 480 h, PRE-emergence, rate 250 g/ha, visual score 20 DAA (100%=total damage, 0%=no damage), read-out: Pre-emergence herbicidal activity (percentage phytotoxicity) AVEFA PRE
[7] = post-emergence, 360 h, POST-emergence, rate 250 g/ha, visual score 15 DAA (100%=total damage, 0%=no damage), read-out: Post-emergence herbicidal activity (percentage phytotoxicity) LOLPE POST
[8] = pre-emergence, 480 h, PRE-emergence, rate 250 g/ha, visual score 20 DAA (100%=total damage, 0%=no damage), read-out: Pre-emergence herbicidal activity (percentage phytotoxicity) LOLPE PRE
[9] = post-emergence, 360 h, POST-emergence, rate 250 g/ha, visual score 15 DAA (100%=total damage, 0%=no damage), read-out: Post-emergence herbicidal activity (percentage phytotoxicity) ALOMY POST
[10] = pre-emergence, 480 h, PRE-emergence, rate 250 g/ha, visual score 20 DAA (100%=total damage, 0%=no damage), read-out: Pre-emergence herbicidal activity (percentage phytotoxicity) ALOMY PRE

Work on `Cc1cc(C)c(C2C(=O)CC(CC(=O)N3CCC(C)CC3)C2=O)c(C)c1` (stereo not shown) [Compound A172] yielded a pest or weed control at 250 g/ha ([1]; post-emergence, 360 h, post-emergence, 250 g/ha, 15 DAA, visual score (100%=total damage; 0%=no damage), read-out: ECHCG POST herbicidal activity (percentage phytotoxicity)) of 70%, a pest or weed control at 250 g/ha ([1]; pre-emergence, 480 h, pre-emergence, 250 g/ha, 20 DAA, visual score (100%=total damage; 0%=no damage), read-out: ECHCG PRE herbicidal activity (percentage phytotoxicity)) of 80% and a pest or weed control at 250 g/ha (Avena fatua (AVEFA); post-emergence, 360 h, post-emergence, 250 g/ha, 15 DAA, visual score (100%=total damage; 0%=no damage), read-out: AVEFA POST herbicidal activity (percentage phytotoxicity)) of 70%. For the same molecule, the pest or weed control at 250 g/ha (Avena fatua (AVEFA); pre-emergence, 480 h, pre-emergence, 250 g/ha, 20 DAA, visual score (100%=total damage; 0%=no damage), read-out: AVEFA PRE herbicidal activity (percentage phytotoxicity)) was 40%, the pest or weed control at 250 g/ha (Lolium perenne (LOLPE); post-emergence, 360 h, post-emergence, 250 g/ha, 15 DAA, visual score (100%=total damage; 0%=no damage), read-out: LOLPE POST herbicidal activity (percentage phytotoxicity)) was 60% and the pest or weed control at 250 g/ha (Lolium perenne (LOLPE); pre-emergence, 480 h, pre-emergence, 250 g/ha, 20 DAA, visual score (100%=total damage; 0%=no damage), read-out: LOLPE PRE herbicidal activity (percentage phytotoxicity)) was 90%. The pest or weed control at 250 g/ha ([2]; post-emergence, 360 h, post-emergence, 250 g/ha, 15 DAA, visual score (100%=total damage; 0%=no damage), read-out: ALOMY POST herbicidal activity (percentage phytotoxicity)) was 80% and the pest or weed control at 250 g/ha ([2]; pre-emergence, 480 h, pre-emergence, 250 g/ha, 20 DAA, visual score (100%=total damage; 0%=no damage), read-out: ALOMY PRE herbicidal activity (percentage phytotoxicity)) was 80%.

Molecule `Cc1cc(-c2ncc(C#N)cc2F)cc(C)c1C1C(=O)CC(CC(=O)NC(C)(C)C)C1=O` (stereo not shown) [Compound B85] has a pest or weed control at 250 g/ha ([1]; post-emergence, 360 h, 250 g/ha, post-emergence, 15 DAA, visual assessment (100%=total damage, 0%=no damage), read-out: Post-emergence herbicidal activity (percentage phytotoxicity) ECHCG POST) of 100%, a pest or weed control at 250 g/ha ([1]; pre-emergence, 480 h, 250 g/ha, pre-emergence, 20 DAA, visual assessment (100%=total damage, 0%=no damage), read-out: Pre-emergence herbicidal activity (percentage phytotoxicity) ECHCG PRE) of 20% and a pest or weed control at 250 g/ha (Avena fatua (AVEFA); post-emergence, 360 h, 250 g/ha, post-emergence, 15 DAA, visual assessment (100%=total damage, 0%=no damage), read-out: Post-emergence herbicidal activity (percentage phytotoxicity) AVEFA POST) of 50%. For the same molecule, the pest or weed control at 250 g/ha (Avena fatua (AVEFA); pre-emergence, 480 h, 250 g/ha, pre-emergence, 20 DAA, visual assessment (100%=total damage, 0%=no damage), read-out: Pre-emergence herbicidal activity (percentage phytotoxicity) AVEFA PRE) was 10%, the pest or weed control at 250 g/ha (Lolium perenne (LOLPE); post-emergence, 360 h, 250 g/ha, post-emergence, 15 DAA, visual assessment (100%=total damage, 0%=no damage), read-out: Post-emergence herbicidal activity (percentage phytotoxicity) LOLPE POST) was 80% and the pest or weed control at 250 g/ha (Lolium perenne (LOLPE); pre-emergence, 480 h, 250 g/ha, pre-emergence, 20 DAA, visual assessment (100%=total damage, 0%=no damage), read-out: Pre-emergence herbicidal activity (percentage phytotoxicity) LOLPE PRE) was 70%. It also gave a pest or weed control at 250 g/ha ([2]; post-emergence, 360 h, 250 g/ha, post-emergence, 15 DAA, visual assessment (100%=total damage, 0%=no damage), read-out: Post-emergence herbicidal activity (percentage phytotoxicity) ALOMY POST) of 70% and a pest or weed control at 250 g/ha ([2]; pre-emergence, 480 h, 250 g/ha, pre-emergence, 20 DAA, visual assessment (100%=total damage, 0%=no damage), read-out: Pre-emergence herbicidal activity (percentage phytotoxicity) ALOMY PRE) of 70%.

Molecule `CCC(C)(C)NC(=O)CC1CC(=O)C(c2c(C)cc(-c3ncc(Cl)cc3F)cc2C)C1=O` (stereo not shown) [Compound A46] has a pest or weed control at 250 g/ha ([1]; post-emergence, 360 h, Rate 250 g/ha, post-emergence, assessed visually 15 DAA, 100%=total damage, 0%=no damage, read-out: Post-emergence herbicidal activity (percentage phytotoxicity) ECHCG POST) of 100%, a pest or weed control at 250 g/ha ([1]; pre-emergence, 480 h, Rate 250 g/ha, pre-emergence, assessed visually 20 DAA, 100%=total damage, 0%=no damage, read-out: Pre-emergence herbicidal activity (percentage phytotoxicity) ECHCG PRE) of 100% and a pest or weed control at 250 g/ha (Avena fatua (AVEFA); post-emergence, 360 h, Rate 250 g/ha, post-emergence, assessed visually 15 DAA, 100%=total damage, 0%=no damage, read-out: Post-emergence herbicidal activity (percentage phytotoxicity) AVEFA POST) of 100%. It also gave a pest or weed control at 250 g/ha (Avena fatua (AVEFA); pre-emergence, 480 h, Rate 250 g/ha, pre-emergence, assessed visually 20 DAA, 100%=total damage, 0%=no damage, read-out: Pre-emergence herbicidal activity (percentage phytotoxicity) AVEFA PRE) of 90%, a pest or weed control at 250 g/ha (Lolium perenne (LOLPE); post-emergence, 360 h, Rate 250 g/ha, post-emergence, assessed visually 15 DAA, 100%=total damage, 0%=no damage, read-out: Post-emergence herbicidal activity (percentage phytotoxicity) LOLPE POST) of 100% and a pest or weed control at 250 g/ha (Lolium perenne (LOLPE); pre-emergence, 480 h, Rate 250 g/ha, pre-emergence, assessed visually 20 DAA, 100%=total damage, 0%=no damage, read-out: Pre-emergence herbicidal activity (percentage phytotoxicity) LOLPE PRE) of 90%. The pest or weed control at 250 g/ha ([2]; post-emergence, 360 h, Rate 250 g/ha, post-emergence, assessed visually 15 DAA, 100%=total damage, 0%=no damage, read-out: Post-emergence herbicidal activity (percentage phytotoxicity) ALOMY POST) was 100% and the pest or weed control at 250 g/ha ([2]; pre-emergence, 480 h, Rate 250 g/ha, pre-emergence, assessed visually 20 DAA, 100%=total damage, 0%=no damage, read-out: Pre-emergence herbicidal activity (percentage phytotoxicity) ALOMY PRE) was 100%.

In the case of `Cc1cc(Br)cc(C)c1C1C(=O)CC(CC(=O)NC/C=C/Cl)C1=O` (stereo not shown) [Compound B176], the pest or weed control at 250 g/ha [1, 3] is reported as 80%, the pest or weed control at 250 g/ha [1, 4] is reported as 80% and the pest or weed control at 250 g/ha (Avena fatua (AVEFA); [5]) is reported as 80%. It also gave a pest or weed control at 250 g/ha (Avena fatua (AVEFA); [6]) of 60%, a pest or weed control at 250 g/ha (Lolium perenne (LOLPE); [7]) of 80% and a pest or weed control at 250 g/ha (Lolium perenne (LOLPE); [8]) of 90%. It also gave a pest or weed control at 250 g/ha [2, 9] of 80% and a pest or weed control at 250 g/ha [2, 10] of 90%.

`CCc1cc(OCC(F)(F)F)cc(C)c1C1C(=O)CC(CC(=O)NCc2ccc(C#N)cc2)C1=O` (stereo not shown) [Compound B216] gave a pest or weed control at 250 g/ha [1, 3] of 100%, a pest or weed control at 250 g/ha [1, 4] of 90% and a pest or weed control at 250 g/ha (Avena fatua (AVEFA); [5]) of 90%. The pest or weed control at 250 g/ha (Avena fatua (AVEFA); [6]) was 70%, the pest or weed control at 250 g/ha (Lolium perenne (LOLPE); [7]) was 90% and the pest or weed control at 250 g/ha (Lolium perenne (LOLPE); [8]) was 70%. It also gave a pest or weed control at 250 g/ha [2, 9] of 100% and a pest or weed control at 250 g/ha [2, 10] of 80%.
